Data reported in patent publication US12338270B2, “Pharmaceutical composition comprising polypeptide” (D&D Pharmatech Inc., priority 2018, dated 2025).
pEC50: −log10 of the molar value. Positions of bridges follow the written chain, without caps; N, C: chain ends. Non-standard residues stand in square brackets, D forms with d. Residues, ends and D or L forms follow the SMILES beside them. No end group written: not given here. Aib = CC(C)(N)C(=O)O

Experiments:
[1] = animal experiment on anti-obesity effect of Example 1; assay type: in vivo; conditions: no details
[2] = biological target: human glucagon GLP-1 receptor (Homo sapiens, UniProt P43220); test: cell-based
Procedure: Thereafter, the cells were incubated for 4 hours under conditions of a temperature of 37° C. in a CO2 incubator.

Pancreatic lipase = biological target: T1, Pancreatic lipase (Homo sapiens, UniProt P16233); conditions: background statement; cited from earlier work
T1 sequence (P16233 17-465): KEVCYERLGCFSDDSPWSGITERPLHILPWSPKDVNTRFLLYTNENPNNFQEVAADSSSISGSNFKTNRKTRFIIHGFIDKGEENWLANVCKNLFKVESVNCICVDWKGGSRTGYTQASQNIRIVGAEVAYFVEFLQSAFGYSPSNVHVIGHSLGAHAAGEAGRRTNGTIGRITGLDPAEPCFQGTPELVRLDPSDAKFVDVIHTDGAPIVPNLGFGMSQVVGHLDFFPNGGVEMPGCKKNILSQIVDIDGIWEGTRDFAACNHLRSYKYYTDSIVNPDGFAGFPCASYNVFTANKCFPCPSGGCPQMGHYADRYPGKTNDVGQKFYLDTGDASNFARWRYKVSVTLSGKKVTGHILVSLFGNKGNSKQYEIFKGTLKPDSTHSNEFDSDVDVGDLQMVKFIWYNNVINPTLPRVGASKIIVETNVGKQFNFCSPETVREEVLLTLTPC

[3] = system: obesity animal model (C57BL/6 mice, 60% high-fat diet); test: blood glucose in obesity model, Examples 2 and 6 (Experimental Example 6); assay type: in vivo; conditions: 20 nmol/kg s.c. once every other day for 2 weeks; FIG. 5
Procedure: (§1) To check a preventing or therapeutic effect of the conjugates of Examples 2 and 6, which had different amino acid sequences, on obesity or diabetes, an animal model of obesity was prepared by feeding a 60% high-fat diet to normal C57BL/6 mice (approximately 6 weeks old) for approximately 24 weeks, and increasing the body weights of the mice to approximately 50 g in average. Thereafter, each of the conjugates of Examples 2 or 6 was administered by subcutaneous injection at a dose of 20 nmol/kg once every other day for 2 weeks. As the control, PBS was administered instead of the conjugates of Examples. For 2 weeks when the conjugates of Examples 2 or 6 were administered, changes in blood glucose with time were measured. Also, to perform an intraperitoneal glucose tolerance test (ipGTT), 2 g/kg of glucose was administered intraperitoneally after the 2-week administration of the drug, and changes in blood glucose with the elapse of time (0, 15, 30, 60, 90, and 120 minutes) were measured.

[4] = system: obesity animal model (C57BL/6 mice, 60% high-fat diet); test: ipGTT in obesity model, Examples 2 and 6 (Experimental Example 6); assay type: in vivo; conditions: 2 g/kg glucose i.p. after 2 weeks of 20 nmol/kg s.c. once every other day; FIG. 6
Procedure: as §1

Chain of human glucagon GLP-1 receptor (P43220 24-463): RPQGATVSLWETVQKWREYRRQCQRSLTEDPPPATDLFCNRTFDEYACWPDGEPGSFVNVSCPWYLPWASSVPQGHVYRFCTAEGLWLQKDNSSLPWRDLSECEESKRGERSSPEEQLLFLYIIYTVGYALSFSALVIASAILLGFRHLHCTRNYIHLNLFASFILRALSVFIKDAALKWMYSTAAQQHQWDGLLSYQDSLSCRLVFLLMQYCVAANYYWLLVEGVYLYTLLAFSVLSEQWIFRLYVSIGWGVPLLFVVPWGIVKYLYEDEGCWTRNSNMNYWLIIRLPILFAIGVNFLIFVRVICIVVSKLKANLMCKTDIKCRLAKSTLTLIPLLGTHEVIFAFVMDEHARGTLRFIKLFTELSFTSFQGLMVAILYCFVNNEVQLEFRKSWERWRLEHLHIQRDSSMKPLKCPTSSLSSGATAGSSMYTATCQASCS

Q: Which “anti-obesity effect” value [1] does the source give for CSCC[C@H](NC(=O)[C@H](CC(C)C)NC(=O)[C@H](Cc1c[nH]c2ccccc12)NC(=O)[C@H](CCC(N)=O)NC(=O)[C@@H](NC(=O)[C@H](Cc1ccccc1)NC(=O)[C@H](CCC(=O)O)NC(=O)[C@@H]1CCCCNC(=O)CC[C@H](NC(=O)[C@H](CC(=O)O)NC(=O)[C@H](CC(C)C)NC(=O)[C@H](Cc2ccc(O)cc2)NC(=O)[C@H](CCCCN)NC(=O)[C@H](CO)NC(=O)[C@H](Cc2ccc(O)cc2)NC(=O)[C@H](CC(=O)O)NC(=O)[C@H](CO)NC(=O)[C@@H](NC(=O)[C@H](Cc2ccccc2)NC(=O)[C@@H](NC(=O)CNC(=O)[C@H](CCC(N)=O)NC(=O)C(C)(C)NC(=O)[C@@H](N)Cc2c[nH]cn2)[C@@H](C)O)[C@@H](C)O)C(=O)N[C@@H](CCC(N)=O)C(=O)N[C@@H](C)C(=O)N[C@@H](C)C(=O)N1)C(C)C)C(=O)N[C@@H](CC(N)=O)C(=O)N[C@H](C(=O)N[C@@H](CS)C(=O)O)[C@@H](C)O [Example 1] (H-H[Aib]QGTFTSDYSKYLDEQAAKEFVQWLMNTC-OH; lactam 16-20 (inferred); N-terminus and C-terminus assumed) here?
A: had an anti-obesity effect

Q: What about the pEC50 [2] of the same compound?
A: 9.89

Q: Which “inhibition of absorption of ingested fats” value (Pancreatic lipase) does the source give for CCCCCCCCCCC[C@@H](C[C@@H]1OC(=O)[C@H]1CCCCCC)OC(=O)[C@H](CC(C)C)NC=O [tetrahydrolipstatin (orlistat), tetrahydrolipstatin] here?
A: approximately 30%

Q: For “Example 6: Conjugate of polypeptide H(Aib)QGTFTSDYSKYLDEEAVKEFVQWLMNTC (SEQ ID NO. 4) and tri-branched mPEG-MAL (MW: 50 kDa) (H[Aib]QGTFTSDYSKYLDEEAVKEFVQWLMNTC; not fully specified (residue 30, bridges); printed as H(Aib)QGTFTSDYSKYLDEEAVKEFVQWLMNTC; also: conjugate with tri-branched mPEG-MAL 50 kDa)”, which “level of blood glucose vs control” value [3] is on record?
A: a level of blood glucose was lowered

Q: And the “increase in blood glucose in ipGTT vs control” value [4]?
A: an increase in blood glucose was significantly reduced
